Data taken from the NIST ThermoML archive (doi:10.1016/j.jct.2010.03.002).
± gives the expanded uncertainty stated by the source.

Legend:
[1] = 101 kPa, Liquid; for viscosity: Capillary tube (Ostwald / Ubbelohde) method; for mass density: Vibrating tube method
[2] = xn = mol fraction of the nth substance listed; conditions: 101 kPa, Liquid, x1 = 1; for viscosity: Capillary tube (Ostwald / Ubbelohde) method; for mass density: Vibrating tube method

| Structure (SMILES) | viscosity ([1]; 293.15 K) [mPa·s] | mass density ([1]; 293.15 K) [kg/m3] | viscosity ([1]; 303.15 K) [mPa·s] | mass density ([1]; 303.15 K) [kg/m3] | viscosity ([1]; 313.15 K) [mPa·s] | mass density ([1]; 313.15 K) [kg/m3] | viscosity ([1]; 323.15 K) [mPa·s] | mass density ([1]; 323.15 K) [kg/m3] | viscosity ([1]; 333.15 K) [mPa·s] | mass density ([1]; 333.15 K) [kg/m3] | viscosity ([2]; 293.15 K) [mPa·s] | viscosity ([2]; 303.15 K) [mPa·s] | viscosity ([2]; 313.15 K) [mPa·s] | viscosity ([2]; 323.15 K) [mPa·s] | mass density ([2]; 323.15 K) [kg/m3] | viscosity ([2]; 333.15 K) [mPa·s] | mass density ([2]; 333.15 K) [kg/m3] |
| --- | --- | --- | --- | --- | --- | --- | --- | --- | --- | --- | --- | --- | --- | --- | --- | --- | --- |
| CCCCCCn1cc[n+](C)c1.[Br-] [3-hexyl-1-methyl-1H-imidazolium bromide] | 6936 ± 750 | 1227.4 ± 1.7 | 2239 ± 200 | 1220.1 ± 1.7 | 851.65 ± 56 | 1213.3 ± 1.7 | 512.14 ± 27 | 1205.7 ± 1.7 | 350.69 ± 16 | 1198.6 ± 1.6 |  |  |  |  |  |  |  |
| O [water] | 1.304 ± 0.012 |  | 1.002 ± 0.01 |  | 0.653 ± 0.007 |  | 0.544 ± 0.005 | 988 ± 0.1 | 0.467 ± 0.005 | 983.2 ± 0.1 |  |  |  |  |  |  |  |
| O [water] + CCCCCCn1cc[n+](C)c1.[Br-] |  |  |  |  |  |  |  |  |  |  | 1.304 ± 0.012 | 1.002 ± 0.01 | 0.653 ± 0.007 | 0.544 ± 0.005 | 988 ± 0.1 | 0.467 ± 0.005 | 983.2 ± 0.1 |
